Reference: paper PMC12406192, “Sustainable Joullié–Ugi and Continuous Flow Implementation Led to Novel Captopril-Inspired Broad-Spectrum Metallo-β-Lactamase Inhibitors” (Journal of Medicinal Chemistry, 2025)
Several values for one entry are separate records, joined by “and”; a condition that tells them apart may be missing. Identical values can stand only once. Entries after “also recorded” stand apart in the source; their conditions may differ. Marks after values point to notes of the source that are not given here.

Assays:
[1] = molecular target: T1, NDM-1 (Klebsiella pneumoniae, UniProt C7C422); test: Spectrophotometric direct competition assay, imipenem hydrolysis (reporter substrate); type: biochemical; conditions: for Ki: competitive model, imipenem reporter substrate, read-out: K i NDM-1; for inhibition at 50 µM: read-out: percentage of inhibition NDM-1
T1 construct: made in house; host or cells: E. coli
T1 sequence (C7C422 29-270 limits assumed): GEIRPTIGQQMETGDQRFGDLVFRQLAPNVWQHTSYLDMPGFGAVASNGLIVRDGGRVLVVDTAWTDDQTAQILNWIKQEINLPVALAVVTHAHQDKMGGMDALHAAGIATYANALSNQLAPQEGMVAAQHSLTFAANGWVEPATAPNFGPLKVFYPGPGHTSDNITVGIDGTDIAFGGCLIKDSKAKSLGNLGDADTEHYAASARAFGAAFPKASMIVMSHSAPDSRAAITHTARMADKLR
Description: (§1) IC50 values were determined in a kinetic fluorescence-based in vitro assay as described previously. All compounds were preincubated with the recombinant protein for 30 min before addition of the fluorogenic substrate fluorocillin. , The inhibitory activity was also determined (expressed as the percentage of inhibition in the presence of 50 μM compound) using a spectrophotometric assay in which the hydrolysis of imipenem (the reporter substrate) was monitored (see Section for details).
(§2) The inhibitory activity of the compounds was determined using enzyme assays with recombinant NDM-1, VIM-1, VIM-2, IMP-1, and IMP-7. These enzymes were produced in E. coli and purified as previously described. , The fluorogenic substrate fluorocillin was synthesized according to the procedure described by Rukavishnikov et al. The assays were performed in 96-well format using black polystyrene plates (Corning, Corning, NY) at room temperature, and the measurements were carried out on the Tecan spectrophotometer Infinite F200 PRO (Tecan, Männedorf, Switzerland). The protein stock solutions were diluted in assay buffer (HEPES 50 mM, pH 7.5 containing 0.01%Triton X-100, buffer HX) to reach final concentrations of VIM-1–4 nM, IMP-7–0.1 nM; NDM-1–3 nM. Subsequently, 89 μL of the protein solution was mixed with 1 μL of the inhibitor diluted in DMSO (final DMSO concentration 1% at final assay volume of 100 μL) and incubated for 30 min. […] Negative controls were measured in the absence of enzyme (89 μL of assay buffer), whereas the positive controls were measured in the presence of enzyme and in the absence of inhibitors (1 μL of DMSO). Each measurement was performed in triplicate in three independent experiments. IC50 values were calculated using data obtained from measurements with at least eight different inhibitor concentrations, applying a sigmoidal dose–response (variable slope with four parameters) equation using GraphPad Prism 5 (GraphPad Software, La Jolla, CA) software. […] All assays were performed in at least in triplicate.

[2] = tested on: S. marcescens SI-1591 (bla VIM‑2 +); test: microbe, parasite or virus in culture; type: cell-based; conditions: compound at 32 μg/mL; median of three experiments
Description: (§3) In vitro antimicrobial susceptibility testing was performed according to established standards. […] The strains used in the study were described elsewhere.

[3] = molecular target: T2, IMP-1 (Serratia marcescens, UniProt P52699); test: biochemical; conditions: for inhibition at 50 µM: read-out: percentage of inhibition IMP-1
T2 construct: made in house; host or cells: E. coli
T2 sequence (P52699 19-246, looked up, species assumed): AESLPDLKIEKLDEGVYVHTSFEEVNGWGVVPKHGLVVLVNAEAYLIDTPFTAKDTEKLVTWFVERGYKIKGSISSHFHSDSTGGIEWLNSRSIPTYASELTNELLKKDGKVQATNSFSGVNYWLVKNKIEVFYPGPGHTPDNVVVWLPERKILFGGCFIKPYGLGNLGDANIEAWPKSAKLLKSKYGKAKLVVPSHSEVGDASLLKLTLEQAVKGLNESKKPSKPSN
Description: as §1, §2

[4] = molecular target: T3, VIM-2 (Escherichia coli, UniProt Q5U7L7); test: biochemical; conditions: read-out: percentage of inhibition VIM-2
T3 construct: made in house; host or cells: E. coli
Description: as §1, §2

[5] = molecular target: T3, VIM-2; test: biochemical; conditions: for K, VIM-2 / k –2, VIM-2: from dependence of k inact on inhibitor concentration; for Kd: time-dependent inhibitors, measured at steady state, listed in Table 2 as Ki with footnote 'Measured as K d'
[6] = tested on: NDM-1 expressing K. pneumoniae (T2301); test: Growth inhibition assay (OD600 growth curves); type: cell-based
Description: (§4) 4 Growth inhibition assay. […] Purple = growth control; red = 6d; blue = imipenem; green = imipenem plus 6d.
(§5) A computerized incubator (Tecan Infinite M200 pro, Crailsheim, Germany) was used to obtain the growth curves over a time course. Optical density (OD600) was measured for evaluating bacterial (i.e., K. pneumoniae NDM-1, P. aeruginosa IMP-1, K. pneumoniae VIM-1) density in suspension. Prior to each experiment, bacteria were cultured to the exponential phase (OD600 = 0.6–0.8) in cation-adjusted Mueller Hinton broth (Becton Dickinson, Heidelberg, Germany). 5 μL of diluted bacterial suspension and 100 μL of cation-adjusted Mueller Hinton broth either with or without imipenem (Arcos Organics, Schwerte, Germany) and/or the MBL inhibitor 6d were added into wells of a 96-well plate to give a final bacterial inoculum of approximately 5 × 10^5 CFU/mL. The temperature was adjusted to 37 °C. A permanent shaking speed of 450 rpm was used and was only interrupted before OD600 measurement. The optical densities of samples were recorded online every 10 min for 24 h.

[7] = tested on: VIM-1 expressing K. pneumoniae (T2216); test: Growth inhibition assay (OD600 growth curves); type: cell-based
Description: as §4, §5

[8] = tested on: IMP-1 expressing P. aeruginosa (T2325); test: Growth inhibition assay (OD600 growth curves); type: cell-based
Description: as §4, §5

[9] = tested on: K. pneumoniae T2301 (bla NDM‑1 +); test: Imipenem MIC, broth microdilution, with fixed concentration of compound; type: cell-based; conditions: compound at 128 μg/mL; median of three experiments
Description: (§6) In vitro antimicrobial susceptibility testing was performed according to established standards. […]. The strains used in the study were described elsewhere.

[10] = tested on: E. coli SI-M001 (bla NDM‑1 +); test: as above; type: cell-based; conditions: compound at 32 μg/mL; median of three experiments
Description: as §6

[11] = tested on: A. baumannii AC-54/97 (bla IMP‑2 +); test: as above; type: cell-based; conditions: compound at 32 μg/mL; median of three experiments
Description: as §3

[12] = tested on: K. pneumoniae 7023 (bla VIM‑1 +); test: as above; type: cell-based; conditions: for imipenem MIC, K. pneumoniae 7023 (bla VIM‑1 +): compound at 32 μg/mL, median of three experiments
Description: as §3

[13] = tested on: K. pneumoniae VA-416/02 (bla VIM‑4 +); test: as above; type: cell-based; conditions: compound at 32 μg/mL; median of three experiments
Description: as §3

[14] = tested on: K. pneumoniae T2216 (bla VIM‑1 +); test: as above; type: cell-based; conditions: compound at 128 μg/mL; median of three experiments
Description: as §3

[15] = tested on: P. aeruginosa T2325 (bla IMP‑1 +); test: as above; type: cell-based
Description: as §3

[16] = tested on: E. coli SI-G001 (bla NDM‑4 +); type: cell-based; conditions: compound at 32 μg/mL; median of three experiments
Description: as §3

[17] = tested on: E. coli SI–N003 (bla NDM‑7 +); type: cell-based; conditions: compound at 32 μg/mL; median of three experiments
Description: as §3

[18] = molecular target: T4, human angiotensin-converting enzyme 1 (ACE-1) (Homo sapiens, UniProt P12821); test: ACE Activity Assay Kit, fluorogenic substrate; type: biochemical; conditions: for inhibition at 50 µM: 50 μM inhibitor
T4 construct: purchased Sigma-Aldrich CS0002
T4 sequence (P12821 30-1306): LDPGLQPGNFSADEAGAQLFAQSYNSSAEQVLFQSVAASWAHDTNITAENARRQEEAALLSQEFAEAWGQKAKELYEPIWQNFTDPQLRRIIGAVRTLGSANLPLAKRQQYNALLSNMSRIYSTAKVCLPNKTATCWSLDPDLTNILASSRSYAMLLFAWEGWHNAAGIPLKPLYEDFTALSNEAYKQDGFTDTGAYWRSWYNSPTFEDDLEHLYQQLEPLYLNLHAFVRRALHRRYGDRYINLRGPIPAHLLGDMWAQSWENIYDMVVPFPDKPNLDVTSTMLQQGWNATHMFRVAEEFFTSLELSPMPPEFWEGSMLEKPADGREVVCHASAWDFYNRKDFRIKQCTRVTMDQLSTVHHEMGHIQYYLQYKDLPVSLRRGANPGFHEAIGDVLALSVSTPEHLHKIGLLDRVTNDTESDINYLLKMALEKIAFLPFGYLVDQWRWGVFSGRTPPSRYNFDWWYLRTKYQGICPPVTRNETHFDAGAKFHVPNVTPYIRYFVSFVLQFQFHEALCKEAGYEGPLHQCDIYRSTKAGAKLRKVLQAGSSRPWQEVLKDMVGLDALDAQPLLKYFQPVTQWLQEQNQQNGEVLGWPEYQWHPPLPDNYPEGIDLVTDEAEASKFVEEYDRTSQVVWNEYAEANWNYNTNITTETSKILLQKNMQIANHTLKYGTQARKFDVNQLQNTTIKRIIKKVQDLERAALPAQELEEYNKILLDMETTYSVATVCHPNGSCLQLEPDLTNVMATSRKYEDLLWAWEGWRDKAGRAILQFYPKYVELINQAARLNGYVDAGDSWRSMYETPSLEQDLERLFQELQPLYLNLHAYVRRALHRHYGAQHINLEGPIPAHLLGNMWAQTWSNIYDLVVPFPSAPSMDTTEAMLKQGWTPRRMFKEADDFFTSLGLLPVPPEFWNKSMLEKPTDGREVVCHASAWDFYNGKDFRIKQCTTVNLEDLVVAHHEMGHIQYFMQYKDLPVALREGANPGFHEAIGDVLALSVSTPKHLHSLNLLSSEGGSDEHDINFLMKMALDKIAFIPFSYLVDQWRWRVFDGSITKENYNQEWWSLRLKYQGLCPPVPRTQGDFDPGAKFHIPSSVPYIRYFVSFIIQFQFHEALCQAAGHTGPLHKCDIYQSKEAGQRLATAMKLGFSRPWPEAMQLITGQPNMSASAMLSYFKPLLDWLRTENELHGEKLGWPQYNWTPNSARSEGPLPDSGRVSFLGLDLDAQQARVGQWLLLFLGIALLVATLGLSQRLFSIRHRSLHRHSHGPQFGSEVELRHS
Description: To assess the selectivity of the compounds, their inhibitory activity on human angiotensin-converting enzyme 1 (ACE-1) was performed using the ACE Activity Assay Kit (Sigma-Aldrich cat. No. CS0002). […] Captopril (racemic mixture, D- and L-stereoisomers) was used as control in these experiments.

[19] = molecular target: T5, VIM-1 (Pseudomonas aeruginosa, UniProt A0A0F7KYQ8); test: Kinetic fluorescence-based in vitro assay with fluorocillin substrate (IC50); type: biochemical
T5 construct: made in house; host or cells: E. coli
Description: as §1, §2

[20] = molecular target: IMP-7 (Pseudomonas aeruginosa, UniProt Q93AU3); test: as above; type: biochemical; conditions: 30 min preincubation
Chain of IMP-7 (Q93AU3 entry or part of it): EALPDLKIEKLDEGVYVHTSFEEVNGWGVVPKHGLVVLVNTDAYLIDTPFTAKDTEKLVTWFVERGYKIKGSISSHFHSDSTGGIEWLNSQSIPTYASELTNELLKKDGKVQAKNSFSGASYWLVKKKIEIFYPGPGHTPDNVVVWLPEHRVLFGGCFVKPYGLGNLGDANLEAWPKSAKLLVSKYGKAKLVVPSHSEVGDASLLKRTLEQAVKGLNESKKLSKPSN
Description: as §1, §2

[21] = molecular target: T1, NDM-1; test: as above; type: biochemical; conditions: 30 min preincubation
Description: as §1, §2

[22] = tested on: MBL-producing clinical isolates; test: Synergistic activity with imipenem on the whole panel of clinical isolates; type: cell-based
Description: as §6

[23] = 6d at 128 μg/mL plus imipenem at 0.5 × MIC, 24 h

| SMILES | Ki [1] | inhibition at 50 µM [1] | imipenem MIC, S. marcescens SI-1591 (bla VIM‑2 +) [2] | inhibition at 50 µM [3] | inhibition at 50 µM [4] | K, VIM-2 [5] | k –2, VIM-2 [5] | Kd [5] | imipenem MIC, E. coli SI-M001 (bla NDM‑1 +) [10] | imipenem MIC, A. baumannii AC-54/97 (bla IMP‑2 +) [11] | imipenem MIC, K. pneumoniae 7023 (bla VIM‑1 +) [12] | imipenem MIC, K. pneumoniae VA-416/02 (bla VIM‑4 +) [13] | imipenem MIC, E. coli SI-G001 (bla NDM‑4 +) [16] | imipenem MIC, E. coli SI–N003 (bla NDM‑7 +) [17] | inhibition at 50 µM [18] | IC50 [21] | potentiation of imipenem (change of imipenem MIC) on the panel, in words [22] | other results |
| --- | --- | --- | --- | --- | --- | --- | --- | --- | --- | --- | --- | --- | --- | --- | --- | --- | --- | --- |
| CCC1(CC)c2ccccc2N(C(=O)[C@H](C)CS)[C@H]1C(N)=O [6d, (R)-3,3-Diethyl-1-((S)-3-mercapto-2-methylpropanoyl)indoline-2-carboxamide] | 2600 ± 100 nM | 90% | 8 µg/mL | 51% | 98% | >30 µM | 5.0 × 10^–3 s^–1 | 80 ± 10 nM | 32 µg/mL | 128 µg/mL | 16 µg/mL | 64 µg/mL | 32 µg/mL | 64 µg/mL | < 5% | 3500 nM | – | effect on the inhibitory potential of imipenem (growth curves) [6, 23]: further prolonged for several hours; intrinsic antibacterial activity (no activity up to) ([6]; inhibitor alone): > 128 µg/mL; effect on the inhibitory potential of imipenem (growth curves) [7, 23]: further prolonged for several hours; intrinsic antibacterial activity (no activity up to) ([7]; inhibitor alone): > 128 µg/mL; effect on the inhibitory potential of imipenem (growth curves) [8, 23]: further prolonged for several hours; intrinsic antibacterial activity (no activity up to) ([8]; inhibitor alone): > 128 µg/mL; imipenem MIC, K. pneumoniae T2301 (bla NDM‑1 +) [9]: 16 ^c μg/mL; fold reduction of the imipenem MIC, VIM-1-producing K. pneumoniae isolate ([12]; in combination with imipenem): 8 fold and 4 fold; imipenem MIC, K. pneumoniae T2216 (bla VIM‑1 +) [14]: 2 ^c μg/mL; imipenem MIC, P. aeruginosa T2325 (bla IMP‑1 +) ([15]; compound at 128 μg/mL, median of three experiments): 16 ^c μg/mL; fold reduction of the imipenem MIC, IMP-1-producing P. aeruginosa isolate ([15]; in combination with imipenem): 8 fold and 4 fold; inhibitory activity on ACE-1 (in words) ([18]; tested at 50 μM): negligible activity; also recorded: completely inactive; IC50 [19]: 400 nM; IC50 [20]: 3300 nM |
| C[C@H](CS)C(=O)N1c2ccccc2C2(CCCCC2)[C@@H]1C(N)=O [6f, (R)-1′-((S)-3-Mercapto-2-methylpropanoyl)spiro[cyclohexane-1,3′-indoline]-2′-carboxamide] | 2100 ± 200 nM | 83% | 16 µg/mL | 38% | 92% | >20 µM | 2.6 × 10^–3 s^–1 | 160 ± 10 nM | 32 µg/mL | 128 µg/mL | 64 µg/mL | 128 µg/mL | 64 µg/mL | 64 µg/mL | – | 4800 nM | unable to reduce the imipenem MIC | – |
| C[C@H](CS)C(=O)N1c2ccccc2C2(CCCCC2)[C@H]1C(N)=O [6e, (S)-1′-((S)-3-Mercapto-2-methylpropanoyl)spiro[cyclohexane-1,3′-indoline]-2′-carboxamide] | 2000 ± 100 nM | 86% | 16 µg/mL | 68% | 97% | – | – | – | 32 µg/mL | 128 µg/mL | 64 µg/mL | 64 µg/mL | 64 µg/mL | 64 µg/mL | < 5% | 7400 nM | unable to reduce the imipenem MIC | Ki ([3]; competitive model, imipenem reporter substrate, read-out: K i IMP-1): 3800 ± 300 nM; Ki ([5]; competitive model, imipenem reporter substrate, read-out: K i VIM-2): 100 ± 10 nM |
